The source of these data is paper PMC6017115, “Inhibitory Effect of Sauchinone on UDP-Glucuronosyltransferase (UGT) 2B7 Activity” (Molecules : A Journal of Synthetic Chemistry and Natural …, 2018).

For series [1], the target named is T1, UGT2B7 (Homo sapiens, UniProt P16662).
T1 sequence (P16662 24-529): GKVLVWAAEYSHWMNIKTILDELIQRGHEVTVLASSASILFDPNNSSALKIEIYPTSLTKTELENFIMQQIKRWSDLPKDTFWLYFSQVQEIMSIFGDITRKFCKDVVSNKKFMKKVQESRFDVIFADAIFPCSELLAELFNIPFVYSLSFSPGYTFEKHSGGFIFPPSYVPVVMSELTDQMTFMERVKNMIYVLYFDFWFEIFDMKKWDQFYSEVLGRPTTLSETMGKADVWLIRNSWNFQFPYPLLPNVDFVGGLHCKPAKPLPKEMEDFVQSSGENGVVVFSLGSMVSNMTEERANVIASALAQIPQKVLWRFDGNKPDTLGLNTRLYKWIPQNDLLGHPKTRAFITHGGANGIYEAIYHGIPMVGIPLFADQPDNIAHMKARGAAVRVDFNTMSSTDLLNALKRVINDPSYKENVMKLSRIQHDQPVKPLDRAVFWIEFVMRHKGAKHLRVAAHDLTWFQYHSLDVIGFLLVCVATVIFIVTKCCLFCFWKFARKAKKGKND
Briefly: Enzyme kinetic assay (Ki, Dixon plot) of UGT2B7-mediated zidovudine glucuronidation. As to conditions: for inhibition mode on UGT2B7: Dixon plot, visual inspection. The procedure:
Inhibitory effects of sauchinone on UGT1A1, 1A3, 1A4, 1A6, 1A9, and 2B7 activities were evaluated using HLMs. […] Spiked volume of UGT cocktail set was 1% (v/v) of total volume of mixture. […] The reaction was initiated by adding 5 mM UDPGA to a final volume of 150 μL and incubated at 37 °C for 15 or 60 min in a thermomixer at 500 rpm. Each reaction was stopped by adding 150 μL of ice-cold methanol containing 50 ng/mL IS. These mixtures were then centrifuged (12,000 rpm for 10 min at 4 °C) and 5 μL of the supernatant was injected into a UPLC-MS/MS system. […] Their IC50 values were compared to that of sauchinone. All inhibitors were dissolved in methanol (except for hecogenin, which was dissolved in dimethyl sulfoxide) and serially diluted to the required concentrations using the same solutions. The final concentration of organic solvent of inhibitors was 1% (v/v). All studies were performed in triplicate and mean values were used in the analysis. The half maximal inhibition constant (IC50) of sauchinone on UGT isoforms was estimated using GraphPad program.
Based on IC50 values, Ki values of sauchinone for UGT1A6 and 2B7 were determined. Concentrations of 0–200 μM of sauchinone were used. Other procedures were similar to those mentioned above in the study of reversible inhibitory effects of sauchinone. Inhibitory characteristics of sauchinone were initially estimated by nonlinear least squares regression analysis and Ki values were determined by Dixon plots.

The test system of series [2] is Ugt2b7. Briefly: Inhibition of Ugt2b7 (zidovudine) in mice liver microsomes. As to conditions: mouse, pH 7.6, probe zidovudine (100 μM, in UGT substrate cocktail). It counts as in vitro ADME. On the procedure: Their IC50 values were compared to that of sauchinone. […] Mice were sacrificed and then livers were removed and rinsed with saline. After weighing the livers, they were homogenized with a four-fold volume of ice-cold homogenizing buffer (0.154 M KCl, 50 mM Tris-base, 1 mM EDTA, pH 7.4). After centrifugation for 35 min at 9000× g and 4 °C, the supernatants were centrifuged for 95 min at 100,000× g and at 4 °C. The supernatants were discarded and the pellets were homogenized again with ice-cold homogenizing buffer. These aliquots were stored at −80 °C. The subsequent process to evaluate the inhibitory effects of sauchinone on UGT activities in MLM was the same as those using HLM. UGT-mediated activities in the presence of sauchinone as an inhibitor were expressed as percentages of corresponding control values (in absence of sauchinone). From percentages of control activity versus inhibitor concentrations, a sigmoid shaped curve was fitted to the data and IC50 as an enzyme inhibition parameter was calculated by fitting the Hill equation to the data using GraphPad Prism 5 (GraphPad Software Inc., San Diego, CA, USA).
A general note: Microsomes from liver hold many membrane-bound enzymes, among them those of drug oxidation.

For series [3], the target named is T2, UGT1A1 (Homo sapiens, UniProt P22309).
T2 construct: The reaction mixture containing 0.25 mg/mL protein of HLM; tissue Corning Life Sciences 452156; host or cells: pooled human liver microsomes, 50 donors
T2 sequence (P22309 26-533): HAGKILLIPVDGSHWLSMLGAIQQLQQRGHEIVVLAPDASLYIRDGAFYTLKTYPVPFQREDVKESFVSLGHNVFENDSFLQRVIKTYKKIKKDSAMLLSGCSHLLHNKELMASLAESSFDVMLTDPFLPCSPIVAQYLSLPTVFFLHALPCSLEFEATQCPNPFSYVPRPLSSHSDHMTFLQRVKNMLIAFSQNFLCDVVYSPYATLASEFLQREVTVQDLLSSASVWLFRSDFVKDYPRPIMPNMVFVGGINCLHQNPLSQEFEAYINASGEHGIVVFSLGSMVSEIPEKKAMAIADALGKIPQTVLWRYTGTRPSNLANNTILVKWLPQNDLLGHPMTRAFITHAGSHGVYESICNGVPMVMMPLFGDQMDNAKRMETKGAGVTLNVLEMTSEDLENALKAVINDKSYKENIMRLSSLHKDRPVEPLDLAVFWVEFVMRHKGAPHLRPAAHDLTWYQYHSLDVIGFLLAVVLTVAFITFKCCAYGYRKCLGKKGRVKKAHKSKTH
Briefly: Inhibition of UGT1A1 (β-estradiol glucuronidation) in human liver microsomes. Format: in vitro ADME. Conditions: substrate 10 μM β-estradiol, mean (minimum–maximum). On the procedure: Their IC50 values were compared to that of sauchinone. […] UGT-mediated activities in the presence of sauchinone as an inhibitor were expressed as percentages of corresponding control values (in absence of sauchinone). From percentages of control activity versus inhibitor concentrations, a sigmoid shaped curve was fitted to the data and IC50 as an enzyme inhibition parameter was calculated by fitting the Hill equation to the data using GraphPad Prism 5 (GraphPad Software Inc., San Diego, CA, USA).

In series [1], `C[C@@H]1[C@H]2c3cc4c(cc3O[C@@]35OCOC3=CC(=O)[C@H](C[C@H]1C)[C@@H]25)OCO4` [Sauchinone] yielded a Ki of 0.524 µM. The “inhibition mode on UGT2B7” value in series [1] is “noncompetitively inhibited”; in series [1] (listed as sauchinone) it was “noncompetitive inhibition mode”. Moreover, the “Vmax for UGT2B7-mediated zidovudine glucuronidation with inhibitor” value in series [1] (sauchinone as inhibitor at 50 μM (decrease from 31.5 at 0 μM)) was 0.495 μM/min/mg protein. The IC50 in series [2] amounted to 23 µM; in series [3] it was 8.83 µM.

Broadly, the Ki is a measure of affinity in units of concentration, obtained from inhibition or displacement. A high value points to a looser hold on the target. A word on the IC50: it is the concentration needed to halve the response being measured.
